{
  "source": "ChEMBL document CHEMBL1148828",
  "about": "“Deoxycholic acid-derived tetraoxane antimalarials and antiproliferatives(1)” (J Med Chem, 2007)",
  "key": {"[1]": {"system": "NCI-H23", "experiment": "Antiproliferative activity against human NCI-H23 cells after 48 hrs", "type": "functional", "details": "NCI-H23, 48 h"}, "[2]": {"system": "Plasmodium falciparum", "experiment": "Antimalarial activity against Plasmodium falciparum TM91C235", "type": "functional, organism-based"}, "[3]": {"system": "SN12C", "experiment": "Antiproliferative activity against human SN12C cells after 48 hrs", "type": "functional"}, "[4]": {"system": "MDA-MB-435", "experiment": "Antiproliferative activity against human MDA-MB-435 cells after 48 hrs", "type": "functional", "details": "Homo sapiens, MDA-MB-435, 48 h"}, "[5]": {"system": "NCI", "experiment": "Growth inhibition of human NCI DTP 60 cells", "type": "functional", "details": "Homo sapiens, NCI"}, "[6]": {"system": "DU-145", "experiment": "Antiproliferative activity against human DU145 cells after 48 hrs", "type": "functional", "details": "DU-145, 48 h"}, "[7]": {"system": "SF-295", "experiment": "Antiproliferative activity against human SF295 cells after 48 hrs", "type": "functional", "details": "SF-295, 48 h"}, "[8]": {"system": "LOX IMVI", "experiment": "Antiproliferative activity against human LOX IMVI cells after 48 hrs", "type": "functional"}, "[9]": {"system": "A498", "experiment": "Antiproliferative activity against human A498 cells after 48 hrs", "type": "functional", "details": "A498, 48 h"}, "[10]": {"system": "Plasmodium falciparum", "experiment": "Antimalarial activity against Plasmodium falciparum W2", "type": "functional, organism-based"}, "[11]": {"system": "Plasmodium falciparum", "experiment": "Antimalarial activity against Plasmodium falciparum D6", "type": "functional, organism-based"}, "[12]": {"system": "HL-60", "experiment": "Antiproliferative activity against human HL60 cells after 48 hrs", "type": "functional", "details": "Homo sapiens, HL-60, 48 h"}, "[13]": {"system": "SF-539", "experiment": "Antiproliferative activity against human SF539 cells after 48 hrs", "type": "functional", "details": "SF-539, 48 h"}, "[14]": {"system": "MDA-MB-231", "experiment": "Antiproliferative activity against human MDA-MB-231 cells after 48 hrs", "type": "functional", "details": "MDA-MB-231, 48 h"}, "[15]": {"system": "HOP-92", "experiment": "Antiproliferative activity against human HOP92 cells after 48 hrs", "type": "functional", "details": "Homo sapiens, HOP-92, 48 h"}, "[16]": {"system": "UO-31", "experiment": "Antiproliferative activity against human UO31 cells after 48 hrs", "type": "functional", "details": "Homo sapiens, UO-31, 48 h"}, "[17]": {"system": "A549", "experiment": "Antiproliferative activity against human A549 cells after 48 hrs", "type": "functional", "details": "A549, 48 h"}, "[18]": {"details": "Plasmodium falciparum, TM91C235"}, "[19]": {"details": "read-out: LC50 (the source's name)"}},
  "data": [
    {"smiles": "CC(=O)O[C@H]1C[C@H]2[C@@H](CC[C@@H]3CC4(CC[C@@]32C)OOC2(CCC(C)CC2)OO4)[C@@H]2CC[C@H]([C@H](C)CCC(N)=O)[C@@]12C", "note": "(stereo in doubt; 12)", "values": [
      {"measurement": "GI50", "setting": "[1]", "result": 660, "unit": "nM"},
      {"measurement": "LC50 (concentration killing 50% of cells)", "setting": "[1]", "result": 3390, "unit": "nM"},
      {"measurement": "TGI", "setting": "[1]", "result": 1710, "unit": "nM"},
      {"measurement": "IC50", "setting": "[2]; [18]", "result": 15.7, "unit": "nM"},
      {"measurement": "IC90", "setting": "[2]; [18]", "result": 30.8, "unit": "nM"},
      {"measurement": "GI50", "setting": "[3]", "result": 833, "unit": "nM"},
      {"measurement": "LC50 (concentration killing 50% of cells)", "setting": "[3]", "result": 3000, "unit": "nM"},
      {"measurement": "TGI", "setting": "[3]", "result": 1580, "unit": "nM"},
      {"measurement": "GI50", "setting": "[4]", "result": 951, "unit": "nM"},
      {"measurement": "TGI", "setting": "[4]", "result": 1940, "unit": "nM"},
      {"measurement": "CC50", "setting": "[4]; [19]", "result": 3960, "unit": "nM"},
      {"measurement": "GI50", "setting": "[5]", "result": 110, "unit": "nM"},
      {"measurement": "GI50", "setting": "[6]", "result": 699, "unit": "nM"},
      {"measurement": "LC50 (concentration killing 50% of cells)", "setting": "[6]", "result": 3340, "unit": "nM"},
      {"measurement": "TGI", "setting": "[6]", "result": 1730, "unit": "nM"},
      {"measurement": "GI50", "setting": "[7]", "result": 524, "unit": "nM"},
      {"measurement": "TGI", "setting": "[7]", "result": 1690, "unit": "nM"},
      {"measurement": "CC50", "setting": "[7]; [19]", "result": 3460, "unit": "nM"},
      {"measurement": "GI50", "setting": "[8]; Homo sapiens, LOX IMVI, 48 h", "result": 111, "unit": "nM"},
      {"measurement": "TGI", "setting": "[8]; Homo sapiens, LOX IMVI, 48 h", "result": 259, "unit": "nM"},
      {"measurement": "GI50", "setting": "[9]", "result": 923, "unit": "nM"},
      {"measurement": "TGI", "setting": "[9]", "result": 1920, "unit": "nM"},
      {"measurement": "CC50", "setting": "[9]; [19]", "result": 4000, "unit": "nM"},
      {"measurement": "IC90", "setting": "[10]", "result": 29.7, "unit": "nM"},
      {"measurement": "IC50", "setting": "[10]; Plasmodium falciparum, W2", "result": 18.8, "unit": "nM"},
      {"measurement": "IC50", "setting": "[11]; Plasmodium falciparum, D6", "result": 13.6, "unit": "nM"},
      {"measurement": "IC90", "setting": "[11]; Plasmodium falciparum, D6", "result": 19, "unit": "nM"},
      {"measurement": "GI50", "setting": "[12]", "result": 769, "unit": "nM"},
      {"measurement": "TGI", "setting": "[12]", "result": 1840, "unit": "nM"},
      {"measurement": "CC50", "setting": "[12]; [19]", "result": 4410, "unit": "nM"},
      {"measurement": "TGI", "setting": "[13]", "result": 1840, "unit": "nM"},
      {"measurement": "CC50", "setting": "[13]; [19]", "result": 3610, "unit": "nM"},
      {"measurement": "GI50", "setting": "[14]", "result": 821, "unit": "nM"},
      {"measurement": "TGI", "setting": "[14]", "result": 1760, "unit": "nM"},
      {"measurement": "CC50", "setting": "[14]; [19]", "result": 3770, "unit": "nM"}
    ]},
    {"smiles": "CC(=O)O[C@H]1C[C@H]2[C@@H]([C@H](OC(C)=O)C[C@@H]3CC4(CC[C@@]32C)OOC2(CCC(C)CC2)OO4)[C@@H]2CC[C@H]([C@H](C)CCC(=O)Nc3ccccc3)[C@@]12C", "note": "(stereo in doubt; 21)", "values": [
      {"measurement": "GI50", "setting": "[15]", "result": 266, "unit": "nM"},
      {"measurement": "LC50 (concentration killing 50% of cells)", "setting": "[15]", "result": 8840, "unit": "nM"},
      {"measurement": "TGI", "setting": "[15]", "result": 766, "unit": "nM"},
      {"measurement": "IC50", "setting": "[2]", "result": 27.2, "unit": "nM"},
      {"measurement": "IC90", "setting": "[2]", "result": 69.7, "unit": "nM"},
      {"measurement": "GI50", "setting": "[5]", "result": 180, "unit": "nM"},
      {"measurement": "GI50", "setting": "[16]", "result": 222, "unit": "nM"},
      {"measurement": "LC50", "setting": "[16]", "result": "> 10000", "unit": "nM"},
      {"measurement": "TGI", "setting": "[16]", "result": 487, "unit": "nM"},
      {"measurement": "GI50", "setting": "[8]", "result": 181, "unit": "nM"},
      {"measurement": "LC50 (concentration killing 50% of cells)", "setting": "[8]", "result": 758, "unit": "nM"},
      {"measurement": "TGI", "setting": "[8]", "result": 370, "unit": "nM"},
      {"measurement": "GI50", "setting": "[17]", "result": 255, "unit": "nM"},
      {"measurement": "TGI", "setting": "[17]", "result": 664, "unit": "nM"},
      {"measurement": "IC50", "setting": "[10]", "result": 23.1, "unit": "nM"},
      {"measurement": "IC90", "setting": "[10]", "result": 54.6, "unit": "nM"},
      {"measurement": "IC50", "setting": "[11]", "result": 19.8, "unit": "nM"},
      {"measurement": "IC90", "setting": "[11]", "result": 29.2, "unit": "nM"}
    ]}
  ]
}
